Results as given in PubChem BioAssay (NCI).
Several values for one entry are separate records, joined by “and”; a condition that tells them apart may be missing. Identical values can stand only once.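 1) Cells in 96-well plates. 2) Compound, 48 h, 5 concentrations. 3) Linear interpolation between surrounding doses. 4) Unreached endpoint = highest concentration. GI50 marks 50% less growth. TGI denotes the concentration required for complete inhibition of growth.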

Tests used:
Test in all cases: NCI tumour cell line growth inhibition, 48 h
NCI-H460 lung = system: NCI-H460 lung
A498 renal = system: A498 renal
RPMI-8226 leukemia = system: RPMI-8226 leukemia
TK-10 renal = system: TK-10 renal
UO-31 renal = system: UO-31 renal
OVCAR-4 ovarian = system: OVCAR-4 ovarian
BT-549 breast = system: BT-549 breast
SF-295 CNS = system: SF-295 CNS
DU-145 prostate = system: DU-145 prostate
HCT-116 colon = system: HCT-116 colon
CCRF-CEM leukemia = system: CCRF-CEM leukemia
OVCAR-3 ovarian = system: OVCAR-3 ovarian
M14 melanoma = system: M14 melanoma
SK-MEL-5 melanoma = system: SK-MEL-5 melanoma
ACHN renal = system: ACHN renal
LOX IMVI melanoma = system: LOX IMVI melanoma
U251 CNS = system: U251 CNS
T-47D breast = system: T-47D breast
SN12C renal = system: SN12C renal

SMILES | TGI (NCI-H460 lung) | TGI (A498 renal) | TGI (RPMI-8226 leukemia) | TGI (TK-10 renal) | TGI (UO-31 renal) | TGI (OVCAR-4 ovarian) | TGI (BT-549 breast) | TGI (SF-295 CNS) | TGI (DU-145 prostate) | TGI (HCT-116 colon) | TGI (CCRF-CEM leukemia) | TGI (OVCAR-3 ovarian) | TGI (M14 melanoma) | TGI (SK-MEL-5 melanoma) | TGI (ACHN renal) | TGI (LOX IMVI melanoma) | TGI (U251 CNS) | TGI (T-47D breast) | TGI (SN12C renal) | GI50 (CCRF-CEM leukemia)
O=c1[nH]c2cc([N+](=O)[O-])ccc2nc1/C=C(\O)c1ccc(Cl)cc1 | 24 µM | 39.6 µM | 65.2 µM | 16.5 µM | 86.2 µM | 41.1 µM | 19.1 µM | 27.4 µM | 23 µM | 11.8 µM | 33.8 µM | 38.6 µM | 28.4 µM | 51.2 µM | 31.4 µM | 25.4 µM | 19.8 µM | 30.8 µM | – | –
Cn1c(=O)c2c(nc3n(C)c(=O)c4ccccc4n23)n(C)c1=O | > 100 µM | > 63.6 µM | > 76.7 µM | > 100 µM | > 100 µM | > 100 µM | > 100 µM | > 91.4 µM | > 83.6 µM | > 100 µM | 44.9 µM | > 100 µM | > 100 µM | > 100 µM | 66.7 µM | > 100 µM | > 100 µM | > 100 µM | > 100 µM | –
COc1cccc(C2c3cc4c(cc3OC(N3CCCCC3)C2C)OCO4)c1OC (stereo unspecified) | 27.9 µM | 28.4 µM | 21.6 µM | 84.1 µM | 48.6 µM | – | 57.4 µM | 22.5 µM | 25.5 µM | 12.1 µM | 15.2 µM | 20.7 µM | 47.1 µM | 21.5 µM | 35.1 µM | 20.1 µM | 51.5 µM | 54.2 µM | 96.8 µM | –
O=S(=O)(O)C(Cc1nc2ccccc2[nH]1)S(=O)(=O)OCCC1S(=O)(=O)OCCOS1(=O)=O (stereo unspecified) | > 100 µM | > 100 µM | > 100 µM | > 100 µM | > 100 µM | > 100 µM | > 100 µM | > 100 µM | > 100 µM | > 100 µM | > 100 µM | > 100 µM | > 100 µM | > 100 µM | > 100 µM | > 100 µM | > 100 µM | > 100 µM | > 100 µM | –
C#CCCOC(=O)c1ccccc1OC(C)=O | > 100 µM | > 100 µM | > 100 µM | > 100 µM | > 100 µM | > 100 µM | > 100 µM | > 100 µM | > 100 µM | > 100 µM | > 100 µM | > 100 µM | > 100 µM | > 100 µM | > 100 µM | > 100 µM | > 100 µM | > 100 µM | > 100 µM | –
Oc1cccc2c1[nH]c1c(C3=C[C@@]4(O)CC/C=C\CCCCN5CC[C@@H]3[C@]3(CC6/C=C\CCCCN6[C@H]34)C5)nccc12 (stereo partly specified) | 2.19 µM | 7.65 µM | 2.6 µM | 5.56 µM | 3.5 µM | 2.79 µM | 4.37 µM | 3.29 µM | 4.64 µM | 2.74 µM | 4.04 µM | 2.83 µM | 2.45 µM | 2.96 µM | 4.1 µM | 2.04 µM | 2.79 µM | 3.19 µM | 2.49 µM | –
COCN1C(=O)[C@@H]2CCCN2C(=O)c2ccc([N+](=O)[O-])cc21 | > 100 µM | > 100 µM | > 100 µM | > 100 µM | > 100 µM | > 100 µM | > 100 µM | > 100 µM | > 100 µM | > 100 µM | > 100 µM | > 100 µM | > 100 µM | > 100 µM | > 100 µM | > 100 µM | > 100 µM | > 100 µM | > 100 µM | –
CN1CCc2cc(N)cc3c2C1Cc1ccc2c(c1-3)OCO2 (stereo unspecified) | > 77.8 µM | > 100 µM | 46.9 µM | > 88.8 µM | 84.6 µM | > 90.4 µM | > 100 µM | > 100 µM | 96.9 µM | > 90.4 µM | 15.9 µM | > 76.5 µM | > 100 µM | 49.8 µM | > 75.5 µM | 37.2 µM | > 100 µM | > 100 µM | > 88.6 µM | –
C=C(CN)CO[Si](C)(C)C(C)(C)C | > 100 µM | > 100 µM | > 100 µM | > 100 µM | > 100 µM | – | > 100 µM | > 100 µM | > 100 µM | > 100 µM | > 100 µM | > 100 µM | > 100 µM | > 100 µM | > 100 µM | > 100 µM | > 100 µM | > 100 µM | > 100 µM | –
O=c1c(=[n+]2ccc(=C([O-])c3ccccc3)cc2)/c(=N/S(=O)(=O)c2ccccc2)c(=O)c2ccccc12 | 36.2 µM | 32 µM | 18.9 µM | 32.2 µM | 23.9 µM | 25.9 µM | 18 µM | 24.3 µM | 26.8 µM | 23.5 µM | 6.11 µM | 13.6 µM | 23.9 µM | 4.87 µM | 25.3 µM | 9.45 µM | 16.1 µM | 12.9 µM | 19 µM | –
O=c1cc(-c2cccc(OCc3ccccc3)c2)[nH]c2cc3c(cc12)OCO3 | 11.2 µM | 3.16 µM | 0.766 µM | 24.7 µM | 16 µM | > 27.8 µM | > 100 µM | 14.4 µM | > 100 µM | > 100 µM | 0.481 µM | 3.58 µM | > 84.5 µM | > 100 µM | 64.3 µM | > 100 µM | 1.84 µM | > 100 µM | > 22.1 µM | –
CN(C)CCCN1c2ccccc2CCc2cc([N+](=O)[O-])ccc21 | 41.7 µM and 29.8 µM | 61.4 µM and 25.8 µM | 52.6 µM and 41.2 µM | 69 µM and 27.8 µM | 70.8 µM and 28.7 µM | 69.5 µM and 40.5 µM | 45 µM and 31.3 µM | 45.1 µM and 28.4 µM | 58.9 µM and 34.6 µM | 41 µM and 29.7 µM | > 100 µM and 27 µM | 48.4 µM and 34.8 µM | 38.1 µM and 31.1 µM | 31.2 µM and 25.7 µM | 90.4 µM and 30 µM | 37.2 µM and 28.2 µM | 64.2 µM and 32.9 µM | 43.9 µM and 37.7 µM | 60.9 µM and 30.4 µM | 43.8 µM and 10.7 µM
